Key:
[1] = molecular target: T1, quinone reductase 2 (QR2) (Homo sapiens, UniProt P16083); assay: QR2 inhibition, comparative IC50 data; format: biochemical; conditions: QR2 inhibitors
T1 sequence (P16083 1-231): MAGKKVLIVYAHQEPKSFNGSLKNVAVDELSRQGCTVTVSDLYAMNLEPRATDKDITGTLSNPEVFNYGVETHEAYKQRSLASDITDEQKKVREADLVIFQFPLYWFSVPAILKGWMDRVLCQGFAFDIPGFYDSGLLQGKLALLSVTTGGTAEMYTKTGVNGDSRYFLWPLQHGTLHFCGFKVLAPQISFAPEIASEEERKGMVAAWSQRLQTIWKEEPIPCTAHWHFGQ

[2] = test system: mouse model of closed head injury (TBI); assay: Rotorod vestibulomotor function after closed head injury (TBI); format: in vivo; conditions: mice, i.p. at 4 hours following TBI, after 5 days
Description: The TBI model involves a single impact designed to avoid skull fracture. Injury is produced predominantly through acceleration/deceleration forces. For this model, therapeutic compounds were delivered i.p. at 4 hours following TBI, and then once weekly thereafter for the duration of the experiment, which terminated after 28 days following assessment of spatial learning and memory. […] Mice were tested on Rotorod for 5 consecutive days post TBI, then on day 7 and day 28.

[3] = test system: mouse model of closed head injury (TBI); assay: Morris Water maze spatial learning and memory after TBI; format: in vivo; conditions: days 28-31 post-injury
Description: The TBI model involves a single impact designed to avoid skull fracture. Injury is produced predominantly through acceleration/deceleration forces. For this model, therapeutic compounds were delivered i.p. at 4 hours following TBI, and then once weekly thereafter for the duration of the experiment, which terminated after 28 days following assessment of spatial learning and memory. FIG. 5A-B summarize the results of spatial learning and memory assessments at 4 weeks following TBI, using the Morris Water maze to test the ability of mice to locate a submerged platform. The mice performed four trials/day for 4 consecutive days (inter-trial interval=30 min). The latency to locate the platform was recorded, and the 4 trials per day were averaged. Mice were tested on days 28-31 post-injury (n=11-12 mice per group). Standard control trials to confirm intact vision were also performed.

[4] = test system: permanent MCA occlusion model; conditions: cited from earlier work
[5] = acidic lysomal pHs between 4 and 5.5; cited from earlier work

Row | Structure (SMILES) | IC50 [1] | improvement in Rotorod latency over CQ [2] | improvement in Rotorod latency over vehicle [2] | improvement in learning and memory over vehicle (Morris Water maze) [3] | reduction of stroke volumes [4] | fraction doubly protonated [5]
1 | COc1ccc2c(NCc3cccnc3)ccnc2c1 [QR2I-44, 7-methoxy-4-(pyridin-3-yl) methylaminoquinoline] | 7.51 µM | ~200% | ~300% | 30-35% |  | 
2 | CCN(CC)CCCC(C)Nc1ccnc2cc(Cl)ccc12 (stereo not shown) [chloroquine] | 70.9 µM |  |  |  | 60% | ~100%

Source: US12331032B2, “Quinone reductase 2 inhibitor compounds and uses thereof” (DUKE UNIVERSITY, priority 2018, dated 2025)
